DBAASP
Values after ≈ are worked out from the molar mass of the structure shown.

How the values were obtained:
Assay in all cases: ≥ marks a high value that may be exact or a test limit, other limits are often not marked, values filed in µg/mL are converted to µM
[1] = tested on: Candida albicans ATCC 90028
[2] = tested on: Escherichia coli ATCC 25922
[3] = tested on: Staphylococcus aureus NCTC 8325

MIC [1] | MIC [2] | MIC [3] | Compound
7 µM (≈ 17.7 µg/mL) | 7 µM (≈ 17.7 µg/mL) | 3 µM (≈ 7.61 µg/mL) | CC[C@H](C)[C@H](NC(=O)[C@H](C)NC(=O)[C@@H]1CCCN1C(=O)[C@H](CC(C)C)NC(=O)[C@@H](N)Cc1ccccc1)C(=O)N[C@@H](C)C(=O)NCC(=O)N[C@H](C(=O)N[C@@H](C)C(=O)N[C@@H](C)C(=O)N[C@@H](CCCCN)C(=O)N[C@@H](Cc1ccccc1)C(=O)N[C@@H](CC(C)C)C(=O)N1CCC[C@H]1C(=O)N[C@@H](CCCCN)C(=O)N[C@H](C(=O)N[C@@H](Cc1ccccc1)C(=O)N[C@H]1CSSC[C@@H](C(=O)O)NC(=O)[C@H](CCCCN)NC(=O)[C@H](CCCCN)NC(=O)[C@H](CO)NC(=O)[C@H]([C@@H](C)CC)NC(=O)[C@H](C)NC1=O)[C@@H](C)CC)C(C)C [FLPAIAGVAAKFLPKIFCAISKKC]
≥ 35 µM | – | 8 µM (≈ 20.2 µg/mL) | CC[C@H](C)[C@@H]1NC(=O)[C@H](CC(C)C)NC(=O)[C@@H](NC(=O)[C@H](CC(C)C)NC(=O)[C@H](CC(C)C)NC(=O)[C@H](CCCCN)NC(=O)[C@@H]2CCCN2C(=O)CNC(=O)[C@H](CC(C)C)NC(=O)[C@@H](NC(=O)[C@H](C)NC(=O)[C@H](C)NC(=O)[C@H](CC(C)C)NC(=O)[C@H](CO)NC(=O)[C@H](C)NC(=O)[C@H](CC(C)C)NC(=O)[C@@H](NC(=O)[C@@H]2CCCN2C(=O)[C@H](CC(C)C)NC(=O)[C@@H](N)Cc2ccccc2)[C@@H](C)CC)[C@@H](C)O)CSSC[C@@H](C(=O)O)NC(=O)[C@H](CCCCN)NC(=O)[C@H](CCCCN)NC(=O)[C@H]([C@@H](C)O)NC1=O [FLPILASLAATLGPKLLCLITKKC]
6 µM (≈ 15.5 µg/mL) | 26 µM (≈ 67.4 µg/mL) | 9 µM (≈ 23.3 µg/mL) | CC[C@H](C)[C@@H]1NC(=O)[C@H](C)NC(=O)[C@@H](NC(=O)[C@H](Cc2ccccc2)NC(=O)[C@@H](NC(=O)[C@H](CCCCN)NC(=O)[C@@H]2CCCN2C(=O)[C@H](CC(C)C)NC(=O)[C@H](Cc2ccccc2)NC(=O)[C@H](CC(N)=O)NC(=O)[C@H](C)NC(=O)[C@H](C)NC(=O)[C@H](CC(C)C)NC(=O)CNC(=O)[C@H](C)NC(=O)[C@@H](NC(=O)[C@H](CC(C)C)NC(=O)[C@@H]2CCCN2C(=O)[C@H](CC(C)C)NC(=O)[C@@H](N)Cc2ccccc2)[C@@H](C)CC)[C@@H](C)CC)CSSC[C@@H](C(=O)O)NC(=O)[C@H](CCCCN)NC(=O)[C@H](CCCCN)NC(=O)[C@H]([C@@H](C)O)NC1=O [FLPLIAGLAANFLPKIFCAITKKC]
– | 25 µM (≈ 66.2 µg/mL) | 12.5 µM (≈ 33.1 µg/mL) | CC[C@H](C)[C@H](NC(=O)[C@H](CCCCN)NC(=O)[C@@H]1CCCN1C(=O)[C@H](CC(C)C)NC(=O)[C@H](Cc1ccccc1)NC(=O)[C@H](CC(N)=O)NC(=O)[C@H](C)NC(=O)[C@H](C)NC(=O)[C@H](CC(C)C)NC(=O)CNC(=O)[C@H](C)NC(=O)[C@H](CC(C)C)NC(=O)[C@H](CC(C)C)NC(=O)[C@@H]1CCCN1C(=O)[C@H](CC(C)C)NC(=O)[C@@H](N)Cc1ccccc1)C(=O)N[C@@H](Cc1ccccc1)C(=O)N[C@H]1CSSC[C@@H](C(=O)O)NC(=O)[C@H](CCCCN)NC(=O)[C@H](CCCCN)NC(=O)[C@H]([C@@H](C)O)NC(=O)[C@H]([C@@H](C)CC)NC(=O)[C@H](CCCCN)NC1=O [FLPLLAGLAANFLPKIFCKITKKC]
– | 19 µM (≈ 60.4 µg/mL) | ≥ 150 µM | CC[C@H](C)[C@H](NC(=O)CNC(=O)[C@H](C)NC(=O)[C@@H](NC(=O)[C@H](CC(=O)O)NC(=O)[C@H](CCCCN)NC(=O)[C@H](C)NC(=O)[C@H](C)NC(=O)CNC(=O)[C@H](CCCCN)NC(=O)[C@H](CC(C)C)NC(=O)[C@@H](NC(=O)[C@H](CC(=O)O)NC(=O)[C@H](CC(C)C)NC(=O)[C@H](CC(C)C)NC(=O)[C@H](CC(C)C)NC(=O)CN)[C@@H](C)O)[C@@H](C)CC)C(=O)N[C@@H](C)C(=O)N[C@@H](CC(C)C)C(=O)N[C@@H](CCC(=O)O)C(=O)N[C@@H](CCCCN)C(=O)N[C@@H](CC(C)C)C(=O)N[C@@H](CCCCN)C(=O)N[C@H]1CSSC[C@@H](C(=O)N[C@@H](CCCCN)C(=O)N2CCC[C@H]2C(=O)O)NC(=O)CNC(=O)[C@H]([C@@H](C)O)NC(=O)[C@H]([C@@H](C)CC)NC(=O)[C@H](CCCCN)NC1=O [GLLLDTLKGAAKDIAGIALEKLKCKITGCKP]
